The record followed here is ChEMBL document CHEMBL1795238, “Structure-brain exposure relationships in rat and human using a novel data set of unbound drug concentrations in brain interstitial and cerebrospinal fluids” (J Med Chem, 2009).

The test system of series [1] is Plasma. The following applies: rat, iv, 4 h.
Another series relates to Brain. The settings on record: rat, in vivo, iv, 4 h.
The conditions of series [2]: rat, brain, iv, 4 h.
Series [3] in a line: in vivo. The following applies: Sprague-Dawley, rat, iv, 2 (umol/kg)/hr.
The nature of series [4]: in vivo. The settings on record: Sprague-Dawley, rat, iv, 2 (umol/kg)/hr. The source holds these as a separate data set.
A short description of another series: clinical. The following applies: human, CSF and plasma.
For series [5] the following is noted: Sprague-Dawley, rat, iv, 2 (umol/kg)/hr, 4 h.
A short description of a further series: in vitro. The following applies: Sprague-Dawley, rat, plasma, iv, 2 (umol/kg)/hr.
Series [6] deals with Plasma. The settings on record: rat, iv, 4 h, BLD = below limit of detection.
Series [7] is described as follows: in vivo. The following applies: Sprague-Dawley, rat, iv, 2 (umol/kg)/hr. The source holds these as a separate data set.
Series [8] relates to Plasma. The settings on record: rat, iv, 4 h. The source holds these as a separate data set.

Description for clinical: Unbound CSF to plasma concentration ratio in human

In the case of `Cc1c(O)cccc1C(=O)N[C@@H](CSc1ccccc1)[C@H](O)CN1C[C@H]2CCCC[C@H]2C[C@H]1C(=O)NC(C)(C)C`, the “Cp(f)” value in the series with Plasma [1] is 1.9 nM. Besides, the Vdu in the series on Brain is 860 mL. This compound had a BPR in [2] of 0.04. Further, the Kp uu at 4 h was 0.019 in “in vivo [3]” (brain and plasma); 0.067 in “in vivo [4]” (CSF and plasma). This compound also had a Kp uu in the series “clinical” of 0.045.
Broadly, the fraction unbound is the share of the substance not bound to proteins or other matrix. A lower fraction unbound goes with little free substance. Turning to `CO/N=C(\C(=O)N[C@@H]1C(=O)N2C(C(=O)O)=C(COC(C)=O)CS[C@H]12)c1csc(N)n1` [CEFOTAXIME], in the series with Plasma [1], the “Cp(f)” value is 2800 nM. Further, in the series on Brain, the Vdu entry is listed as “ND(Unstable)”. For the same compound, the BPR result in series [2] (Sprague-Dawley, 2 (umol/kg)/hr) is listed as “ND(Unstable)”. The “K(p,uu,brain)” value in series [5] is recorded as “ND(Unstable)”. In addition, in “in vivo [4]” (csf), the Kp uu at 4 h was found to be 0.007. For the same compound, in the series “in vitro”, the fraction unbound at 4 h stood at 0.59. In “clinical”, this compound gave a Kp uu of 0.17.
Turning to `Nc1nnc(-c2cccc(Cl)c2Cl)c(N)n1` [LAMOTRIGINE], in the series on Plasma [1], the “Cp(f)” value came to 1800 nM. This compound also registered a Vdu in the series with Brain of 4.6 mL. The BPR in [2] (Sprague-Dawley, 2 (umol/kg)/hr) was determined as 2.02. The Kp uu at 4 h is 0.88 in the series “in vivo [3]” (brain) and 0.86 in “in vivo [4]” (csf). In “in vitro”, this compound had a free fraction (fraction unbound) at 4 h of 0.51. Moreover, in the series “clinical”, the Kp uu amounted to 1.1.
`CC(=O)O[C@H]1C(=O)[C@@]2(C)[C@H]([C@H](OC(=O)c3ccccc3)[C@]3(O)C[C@H](OC(=O)[C@H](O)[C@@H](NC(=O)c4ccccc4)c4ccccc4)C(C)=C1C3(C)C)[C@]1(OC(C)=O)CO[C@@H]1C[C@@H]2O` [PACLITAXEL]: the “Cp(f)” value with Plasma [1] is 16 nM. For the same compound, the Vdu in the series with Brain is 769 mL. For the same compound, the “K(p,uu,CSF)” value in the series with Plasma [6] was “BLD”. In the series “in vivo [7]” (brain), this compound showed a Kp at 4 h of 0.28. This compound yielded a Kp uu at 4 h in “in vivo [3]” (brain and plasma) of 0.007. This compound displayed a fraction unbound at 4 h in “in vitro” of 0.05.
Take `CC(C)NCC(O)COc1cccc2ccccc12` (stereo not drawn) [PROPRANOLOL]: the “Cp(f)” value in the series on Plasma [1] is 51 nM. Also, in the series with Brain, the Vdu is 118 mL. This compound also yielded a Kp at 4 h in the series “in vivo [7]” (brain and plasma) of 6.59. Further, the Kp uu at 4 h in the series “in vivo [3]” (brain and plasma) worked out at 0.61; in the series “in vivo [4]” (CSF and plasma) it was 0.49. Moreover, in the series “in vitro”, the fraction unbound at 4 h amounted to 0.09. In addition, the Kp uu in the series “clinical” was 0.42.
Turning to `O=C(O)c1ccccc1O` [SALICYLIC ACID], the “Cp(f)” value in the series on Plasma [1] was found to be 5600 nM. Further, in the series on Brain, the Vdu was found to be 1 mL. The compound also showed a Kp at 4 h in “in vivo [7]” (brain) of 0.05. Besides, the Kp uu at 4 h in “in vivo [3]” (brain) turned out to be 0.19; in the series “in vivo [4]” (csf), 0.16. The fraction unbound at 4 h in “in vitro” amounted to 0.28. The Kp uu in “clinical” was determined as 0.19.
As for `Nc1c2c(nc3ccccc13)CCCC2` [TACRINE], the “Cp(f)” value with Plasma [1] was 120 nM. The same compound returned a Vdu with Brain of 22 mL. The Kp at 4 h in “in vivo [7]” (brain) turned out to be 9.56. The values for the Kp uu at 4 h in the series “in vivo [3]” (brain) and in “in vivo [4]” (csf) were 0.78 and 0.67, respectively. Further, the fraction unbound at 4 h in the series “in vitro” was determined as 0.55. Also, the Kp uu in “clinical” amounted to 0.74.
For the compound `CSc1ccc2c(c1)N(CCC1CCCCN1C)c1ccccc1S2` (stereo not drawn) [THIORIDAZINE], the “Cp(f)” value with Plasma [1] worked out at 1.3 nM. Besides, in the series on Brain, the Vdu amounted to 3333 mL. This compound returned a Fu in the series on Plasma [8] of 0.002. In “in vivo [7]” (brain), the Kp at 4 h came out at 3.75. For the same compound, the results for the Kp uu at 4 h in the series “in vivo [3]” (brain) and in the series “in vivo [4]” (csf) were 0.45 and 0.21, respectively. Also, the Kp uu in the series “clinical” came out at 1.4.
For the compound `CC1(C)O[C@@H]2[C@@H](CO[C@@]3(COS(N)(=O)=O)OC(C)(C)O[C@@H]23)O1` [TOPIRAMATE], the “Cp(f)” value in the series with Plasma [1] turned out to be 3400 nM. This compound had a Vdu in the series on Brain of 3.2 mL. In the series “in vivo [7]” (brain and plasma), this compound gave a Kp at 4 h of 0.84. Moreover, the Kp uu at 4 h in the series “in vivo [3]” (brain and plasma) is 0.33; in “in vivo [4]” (CSF and plasma), 0.63. Further, in the series “in vitro”, the fraction unbound at 4 h turned out to be 0.79. In the series “clinical”, this compound returned a Kp uu of 1.
As to `COc1cccc(C2(O)CCCCC2CN(C)C)c1` (stereo not drawn) [TRAMADOL], the “Cp(f)” value in the series on Plasma [1] came to 300 nM. The compound further showed a Vdu in the series with Brain of 4.2 mL. The Kp at 4 h in the series “in vivo [7]” (brain) was 5.29. The Kp uu at 4 h in the series “in vivo [3]” (brain) came to 1.46; in “in vivo [4]” (csf) it was 0.71. For the same compound, the fraction unbound at 4 h in the series “in vitro” worked out at 0.85. The compound also showed a Kp uu in the series “clinical” of 1.44.
